For this assay, the target named is T1, Human HPK1, catalytic domain (Homo sapiens, UniProt Q92918).
T1 sequence (Q92918 1-346): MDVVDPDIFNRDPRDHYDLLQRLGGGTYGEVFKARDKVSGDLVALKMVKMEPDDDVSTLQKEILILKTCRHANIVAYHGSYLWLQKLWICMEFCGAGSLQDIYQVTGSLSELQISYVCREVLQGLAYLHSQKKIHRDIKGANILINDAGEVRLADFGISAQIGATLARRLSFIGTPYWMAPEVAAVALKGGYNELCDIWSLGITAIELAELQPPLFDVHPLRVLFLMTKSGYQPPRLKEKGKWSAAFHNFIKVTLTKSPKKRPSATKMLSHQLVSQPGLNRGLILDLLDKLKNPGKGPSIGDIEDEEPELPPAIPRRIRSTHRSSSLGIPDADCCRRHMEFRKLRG
In words: HPK1-SLP76 TR-FRET Assay. It is filed as biochemical. The following applies: 75 pM HPK1, ATP 10 uM, SLP76 10 nM, 30 min pre-incubation, 60 min reaction. For orientation: Time-resolved FRET reads energy transfer from a long-lived donor to a nearby acceptor.
As for `COc1cc2c(cc1Nc1ncc3ccc(-c4cnccc4C)cc3n1)CN(C)CC2` [Compound 1-2, N-(6-methoxy-2-methyl-1,2,3,4-tetrahydroisoquinolin-7-yl)-7-(4-methylpyridin-3-yl)quinazolin-2-amine], 26.2 nM corresponded to half-maximal inhibition (IC50).

The compound `COc1cc2c(cc1Nc1ncc3ccc(-c4cncc(N)c4C)cc3n1)CN(C)CC2` [Compound 1-3, 7-(5-amino-4-methylpyridin-3-yl)-N-(6-methoxy-2-methyl-1,2,3,4-tetrahydroisoquinolin-7-yl)quinazolin-2-amine] displayed an IC50 of 1.52 nM.

`COc1cc2c(cc1Nc1ncc3ccc(-c4cnc5c(c4C)NCCO5)cc3n1)CN(C)CC2` [Compound 1-4, N-(6-methoxy-2-methyl-1,2,3,4-tetrahydroisoquinolin-7-yl)-7-(8-methyl-2,3-dihydro-1H-pyrido[2,3-b][1,4]oxazin-7-yl)quinazolin-2-amine]: the IC50 was 1.51 nM.

Take `COc1cc2c(cc1Nc1ncc3ccc(-c4c(C)cccc4F)cc3n1)CN(C)CC2` [Compound 1-5, 7-(2-fluoro-6-methylphenyl)-N-(6-methoxy-2-methyl-1,2,3,4-tetrahydroisoquinolin-7-yl)quinazolin-2-amine]: it took 230 nM to reach half-maximal inhibition (IC50).

Compound `COc1cc2c(cc1Nc1ncc3ccc(-c4cccc5c4CCNC5)cc3n1)CN(C)CC2` [Compound 1-6, N-(6-methoxy-2-methyl-1,2,3,4-tetrahydroisoquinolin-7-yl)-7-(1,2,3,4-tetrahydroisoquinolin-5-yl)quinazolin-2-amine] gave an IC50 of 92.2 nM.

Take `COc1cc2c(cc1Nc1ncc3ccc(-c4cc(F)ccc4CN)cc3n1)CN(C)CC2` [Compound 1-7, 7-[2-(aminomethyl)-5-fluorophenyl]-N-(6 methoxy-2-methyl-1,2,3,4-tetrahydroisoquinolin-7-yl)quinazolin-2-amine]: it took 245 nM to reach half-maximal inhibition (IC50).

With `COc1cc2c(cc1Nc1ncc3ccc(-c4ccc(F)cc4CN)cc3n1)CN(C)CC2` [Compound 1-8, 7-[2-(aminomethyl)-4-fluorophenyl]-N-(6-methoxy-2-methyl-1,2,3,4-tetrahydroisoquinolin-7-yl)quinazolin-2-amine], half-maximal inhibition (IC50) required 403 nM.

The compound `COc1cc2c(cc1Nc1ncc3ccc(-c4cccc5c4CNCC5)cc3n1)CN(C)CC2` [Compound 1-9, N-(6-methoxy-2-methyl-1,2,3,4-tetrahydroisoquinolin-7-yl)-7-(1,2,3,4-tetrahydroisoquinolin-8-yl)quinazolin-2-amine] yielded a concentration for half-maximal inhibition (IC50) of 42.9 nM.

`COc1cc2c(cc1Nc1ncc3ccc(-c4ccccc4N4CCOC4=O)cc3n1)CN(C)CC2` [Compound 1-10, 3-(2-{2-[(6-methoxy-2-methyl-1,2,3,4-tetrahydroisoquinolin-7-yl)amino]quinazolin-7-yl}phenyl)-1,3-oxazolidin-2-one]: inhibition was half-maximal at 27 nM (IC50).

Turning to `COc1cc2c(cc1Nc1ncc3ccc(-c4cc(C)ccc4N4CCOC4=O)cc3n1)CN(C)CC2` [Compound 1-11, 3-(2-{2-[(6-methoxy-2-methyl-1,2,3,4-tetrahydroisoquinolin-7-yl)amino]quinazolin-7-yl}-4-methylphenyl)-1,3-oxazolidin-2-one], the IC50 worked out at 179 nM.

The compound `COc1cc2c(cc1Nc1ncc3ccc(-c4ccc(C(F)(F)C(N)=O)nc4)cc3n1)CN(C)CC2` [Compound 1-12, 2,2-difluoro-2-(5-{2-[(6-methoxy-2-methyl-1,2,3,4-tetrahydroisoquinolin-7-yl)amino]quinazolin-7-yl}pyridin-2-yl)acetamide] registered a concentration for half-maximal inhibition (IC50) of 341 nM.

`COc1cc2c(cc1Nc1ncc3ccc(-c4cnn(CCO)c4)cc3n1)CN(C)CC2` [Compound 1-13, 2-(4-{2-[(6-methoxy-2-methyl-1,2,3,4-tetrahydroisoquinazolin-7-yl)amino]quinazolin-7-yl}-1H-pyrazol-1-yl)ethan-1-ol] yielded a concentration for half-maximal inhibition (IC50) of 7.7 nM.

For `COc1cc2c(cc1Nc1ncc3ccc(-c4cncc(C(C)(C)O)c4)cc3n1)CN(C)CC2` [Compound 1-14, 2-(5-{2-[(6-methoxy-2-methyl-1,2,3,4-tetrahydroisoquinolin-7-yl)amino]quinazolin-7-yl}pyridin-3-yl)propan-2-ol], the 50% inhibitory concentration (IC50) amounted to 55.3 nM.

In turn, `COc1cc2c(cc1Nc1ncc3ccc(-c4cnc(C(C)(C)O)s4)cc3n1)CN(C)CC2` [Compound 1-15, 2-(5-{2-[(6-methoxy-2-methyl-1,2,3,4-tetrahydroisoquinolin-7-yl)amino]quinazolin-7-yl}-1,3-thiazol-2-yl)propan-2-ol] came in with an IC50 of 42.7 nM.

`COc1cc2c(cc1Nc1ncc3ccc(-c4ccn5ncnc5c4)cc3n1)CN(C)CC2` [Compound 1-16, N-(6-methoxy-2-methyl-1,2,3,4-tetrahydroisoquinolin-7-yl)-7-([1,2,4]triazolo[1,5-a]pyridin-7-yl)quinazolin-2-amine] came in with a 50% inhibitory concentration (IC50) of 154 nM.

The compound `COc1cncc(-c2ccc3cnc(Nc4cc5c(cc4OC)CCN(C)C5)nc3c2)c1` [Compound 1-17, N-(6-methoxy-2-methyl-1,2,3,4-tetrahydroisoquinolin-7-yl)-7-(5-methoxypyridin-3-yl)quinazolin-2-amine] yielded an IC50 of 19.1 nM.

`COc1cc2c(cc1Nc1ncc3ccc(-c4ccc(NC(C)=O)nc4)cc3n1)CN(C)CC2` [Compound 1-18, N-(5-{2-[(6-methoxy-2-methyl-1,2,3,4-tetrahydroisoquinolin-7-yl)amino]quinazolin-7-yl}pyridin-2-yl)acetamide] gave a half-maximal inhibitory concentration (IC50) of 82.2 nM.

`COc1cc2c(cc1Nc1ncc3ccc(-c4cnc(N)nc4C)cc3n1)CN(C)CC2` [Compound 1-19, 7-(2-amino-4-methylpyrimidin-5-yl)-N-(6-methoxy-2-methyl-1,2,3,4-tetrahydroisoquinazolin-7-yl)quinazolin-2-amine] gave a concentration for half-maximal inhibition (IC50) of 2.57 nM.

In turn, `CCn1cc(-c2ccc3cnc(Nc4cc5c(cc4OC)CCN(C)C5)nc3c2)cn1` [Compound 1-20, 7-(1-ethyl-1H-pyrazol-4-yl)-N-(6-methoxy-2-methyl-1,2,3,4-tetrahydroisoquinolin-7-yl)quinazolin-2-amine] had a 50% inhibitory concentration (IC50) of 4.61 nM.

Regarding `CNC(=O)c1ccc(-c2ccc3cnc(Nc4cc5c(cc4OC)CCN(C)C5)nc3c2)cn1` [Compound 1-21, 5-{2-[(6-methoxy-2-methyl-1,2,3,4-tetrahydroisoquinolin-7-yl)amino]quinazolin-7-yl}-N-methylpyridine-2-carboxamide], the IC50 was found to be 294 nM.

In the case of `COc1cc2c(cc1Nc1ncc3ccc(-c4cnc5c(C#N)cnn5c4)cc3n1)CN(C)CC2` [Compound 1-22, 6-{2-[(6-methoxy-2-methyl-1,2,3,4-tetrahydroisoquinolin-7-yl)amino]quinazolin-7-yl}pyrazolo[1,5-a]pyrimidine-3-carbonitrile], the IC50 turned out to be 735 nM.

For `CCNC(=O)c1ccc(-c2ccc3cnc(Nc4cc5c(cc4OC)CCN(C)C5)nc3c2)cn1` [Compound 1-23, N-ethyl-5-{2-[(6-methoxy-2-methyl-1,2,3,4-tetrahydroisoquinolin-7-yl)amino]quinazolin-7-yl}pyridine-2-carboxamide], the midpoint of inhibition, the IC50, lay at 693 nM.

For `COc1cc2c(cc1Nc1ncc3ccc(-c4cncc5cccnc45)cc3n1)CN(C)CC2` [Compound 1-24, N-(6-methoxy-2-methyl-1,2,3,4-tetrahydroisoquinolin-7-yl)-7-(1,6-naphthyridin-8-yl)quinazolin-2-amine], the IC50 amounted to 10.5 nM.

`COc1cc2c(cc1Nc1ncc3ccc(-c4cnc5cccnc5c4)cc3n1)CN(C)CC2` [Compound 1-25, N-(6-methoxy-2-methyl-1,2,3,4-tetrahydroisoquinolin-7-yl)-7-(,15-naphthyridin-3-yl)quinazolin-2-amine] registered a half-maximal inhibitory concentration (IC50) of 20 nM.

As to `COc1cc2c(cc1Nc1ncc3ccc(-c4cnn(C(F)F)c4)cc3n1)CN(C)CC2` [Compound 1-26, 7-[1-(difluoromethyl)-1H-pyrazol-4-yl]-N-(6-methoxy-2-methyl-1,2,3,4-tetrahydroisoquinolin-7-yl)quinazolin-2-amine], half-maximal inhibition (IC50) required 10.8 nM.

As to `COc1cc2c(cc1Nc1ncc3ccc(-c4ccc(N)nc4)cc3n1)CNCC2` [Compound 1-27, 7-(6-aminopyridin-3-yl)-N-(6-methoxy-1,2,3,4-tetrahydroisoquinolin-7-yl)quinazolin-2-amine], the concentration for half-maximal inhibition (IC50) came to 9.91 nM.

With `CNC(=O)c1ccc(-c2ccc3cnc(Nc4cc5c(cc4OC)CCNC5)nc3c2)cn1` [Compound 1-28, 5-{2-[(6-methoxy-1,2,3,4-tetrahydroisoquinolin-7-yl)amino]quinazolin-7-yl}-N-methylpyridine-2-carboxamide], inhibition was half-maximal at 198 nM (IC50).

For the compound `COc1cc2c(cc1Nc1ncc3ccc(-c4cnc5c(c4)OCCN5C)cc3n1)CNCC2` [Compound 1-29, N-(6-methoxy-1,2,3,4-tetrahydroisoquinolin-7-yl)-7-(4-methyl-3,4-dihydro-2H-pyrido[3,2-b][1,4]oxazin-7-yl)quinazolin-2-amine], it took 85.8 nM to reach half-maximal inhibition (IC50).

In the case of `COc1cc2c(cc1Nc1ncc3ccc(-c4ccc(NC(C)=O)nc4)cc3n1)CNCC2` [Compound 1-30, N-(5-{2-[(6-methoxy-1,2,3,4-tetahydroisoquinolin-7-yl)amino]quinazolin-7-yl}pyridin-2-yl)acetamide], half-maximal inhibition (IC50) was put at 45.5 nM.

The compound `COc1cc2c(cc1Nc1ncc3ccc(-c4cccc(N)c4C)cc3n1)CNCC2` [Compound 1-31, 7-(3-amino-2-methylphenyl)-N-(6-methoxy-1,2,3,4-tetrahydroisoquinolin-7-yl)quinazolin-2-amine] came in with an IC50 of 204 nM.

With `COc1cc2c(cc1Nc1ncc3ccc(-c4ccc(S(N)(=O)=O)cc4C)cc3n1)CNCC2` [Compound 1-32, 4-{2-[(6-methoxy-1,2,3,4-tetrahydroisoquinolin-7-yl)amino]quinazolin-7-yl}-3-methylbenzene-1-sulfonamide], inhibition was half-maximal at 108 nM (IC50).

In general, IC50 refers to the midpoint of a concentration-inhibition curve. Higher therefore signals weaker potency in that assay.
